Assay results: PubChem BioAssay AID330 (DTP/NCI, 2004)
Values joined by “and” are separate entries in the source; they are usually repeats but may differ in a detail not shown here. Equal values may be shown once. Toxic doses and inconclusive results are not listed.

Test system: P388 leukemia ip, CD2F1 mice, survival T/C
Test: NCI In Vivo Anticancer Drug Screen. Data for tumor model P388 Leukemia (intraperitoneal) in CD2F1 (CDF1) mice
Settings: endpoint: median survival time, higher = longer survival
Outline: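 Mice carrying the transplanted tumor received test compound or vehicle. Survival was recorded in each group, and the value is the treated-group measurement divided by that of the vehicle-treated control group.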

[1] = dose: 100.0 mg/kg/injection, schedule: Q04DX002 (ip), vehicle: saline with Tween-80
[2] = dose: 200.0 mg/kg/injection, schedule: Q04DX002 (ip), vehicle: saline with Tween-80
[3] = dose: 60.0 mg/kg/injection, schedule: Q01DX005 (ip), vehicle: Klucel (hydroxypropylcellulose) (HPC)
[4] = dose: 120.0 mg/kg/injection, schedule: Q01DX005 (ip), vehicle: Klucel (hydroxypropylcellulose) (HPC)
[5] = dose: 240.0 mg/kg/injection, schedule: Q01DX005 (ip), vehicle: Klucel (hydroxypropylcellulose) (HPC)
[6] = dose: 50.0 mg/kg/injection, schedule: Q01DX009 (ip), vehicle: saline
[7] = dose: 100.0 mg/kg/injection, schedule: Q01DX009 (ip), vehicle: saline
[8] = dose: 200.0 mg/kg/injection, schedule: Q01DX009 (ip), vehicle: saline
[9] = dose: 50.0 mg/kg/injection, schedule: Q01DX005 (ip), vehicle: saline with Tween-80
[10] = dose: 100.0 mg/kg/injection, schedule: Q01DX005 (ip), vehicle: saline with Tween-80
[11] = dose: 50.0 mg/kg/injection, schedule: Q01DX009 (ip), vehicle: saline with Tween-80
[12] = dose: 100.0 mg/kg/injection, schedule: Q01DX009 (ip), vehicle: saline with Tween-80
[13] = dose: 200.0 mg/kg/injection, schedule: Q01DX009 (ip), vehicle: saline with Tween-80
[14] = dose: 60.0 mg/kg/injection, schedule: Q01DX005 (ip), vehicle: saline with Tween-80
[15] = dose: 120.0 mg/kg/injection, schedule: Q01DX005 (ip), vehicle: saline with Tween-80
[16] = dose: 240.0 mg/kg/injection, schedule: Q01DX005 (ip), vehicle: saline with Tween-80
[17] = dose: 25.0 mg/kg/injection, schedule: Q01DX005 (ip), vehicle: saline with Tween-80

O=C(O)c1ccccc1.[Eu]
T/C (dose: 12.5 mg/kg/injection, schedule: Q01DX009 (ip), vehicle: Klucel (hydroxypropylcellulose) (HPC)): 88 % of control
T/C (dose: 25.0 mg/kg/injection, schedule: Q01DX009 (ip), vehicle: Klucel (hydroxypropylcellulose) (HPC)): 87 % of control
T/C (dose: 50.0 mg/kg/injection, schedule: Q01DX009 (ip), vehicle: Klucel (hydroxypropylcellulose) (HPC)): 89 % of control and 92 % of control
T/C (dose: 100.0 mg/kg/injection, schedule: Q01DX009 (ip), vehicle: Klucel (hydroxypropylcellulose) (HPC)): 90 % of control
T/C (dose: 200.0 mg/kg/injection, schedule: Q01DX009 (ip), vehicle: Klucel (hydroxypropylcellulose) (HPC)): 89 % of control

Cn1nnc(-c2ccccc2)n1
T/C [1]: 107 % of control
T/C [2]: 102 % of control
T/C (dose: 400.0 mg/kg/injection, schedule: Q04DX002 (ip), vehicle: saline with Tween-80): 112 % of control

CCCCS(=O)CC(CO)NC(=O)/C=C/c1c(C)[nH]c(=O)[nH]c1=O (stereo not given)
T/C (dose: 0.08 mg/kg/injection, schedule: Q01DX009 (ip), vehicle: Klucel (hydroxypropylcellulose) (HPC)): 89 % of control
T/C (dose: 0.15 mg/kg/injection, schedule: Q01DX009 (ip), vehicle: Klucel (hydroxypropylcellulose) (HPC)): 86 % of control
T/C (dose: 0.3 mg/kg/injection, schedule: Q01DX009 (ip), vehicle: Klucel (hydroxypropylcellulose) (HPC)): 103 % of control
T/C (dose: 0.6 mg/kg/injection, schedule: Q01DX009 (ip), vehicle: Klucel (hydroxypropylcellulose) (HPC)): 112 % of control
T/C (dose: 0.6 mg/kg/injection, schedule: Q01DX009 (ip), vehicle: water): 122 % of control
T/C (dose: 4.8 mg/kg/injection, schedule: Q01DX009 (ip), vehicle: water): 153 % of control
T/C (dose: 5.0 mg/kg/injection, schedule: Q01DX009 (ip), vehicle: water): 161 % of control

c1ccc2c(c1)ccc1ncc3ncccc3c12
T/C [1]: 98 % of control
T/C [2]: 114 % of control

CCCCN(CCO)CC(O)Cn1cnc2c(N)ncnc21 (stereo not given)
T/C [3]: 94 % of control
T/C [4]: 87 % of control
T/C [5]: 87 % of control

CSCC(N)CO (stereo not given)
T/C [6]: 110 % of control
T/C [7]: 105 % of control
T/C [8]: 101 % of control

CCOc1cc2c(cc1C(C)c1ccc(Cl)cc1)OCO2 (stereo not given)
T/C [9]: 93 % of control
T/C [10]: 99 % of control
T/C (dose: 200.0 mg/kg/injection, schedule: Q01DX005 (ip), vehicle: saline with Tween-80): 93 % of control

COc1ccc(C(OCC2CC3CCC2C3)OCC2CC3CCC2C3)cc1 (stereo not given)
T/C (dose: 12.5 mg/kg/injection, schedule: Q01DX009 (ip), vehicle: other): 114 % of control
T/C (dose: 25.0 mg/kg/injection, schedule: Q01DX009 (ip), vehicle: other): 111 % of control
T/C (dose: 50.0 mg/kg/injection, schedule: Q01DX009 (ip), vehicle: other): 110 % of control
T/C (dose: 100.0 mg/kg/injection, schedule: Q01DX009 (ip), vehicle: other): 111 % of control
T/C (dose: 200.0 mg/kg/injection, schedule: Q01DX009 (ip), vehicle: other): 111 % of control

CCCCCCCCCCCC[N+](C)(CCS(=O)(=O)[O-])Cc1ccccc1 (stereo not given)
T/C [10]: 108 % of control

Cc1ccc(SCC(=O)O)c(C)c1
T/C [11]: 88 % of control
T/C [12]: 88 % of control
T/C [13]: 94 % of control
T/C (dose: 400.0 mg/kg/injection, schedule: Q01DX009 (ip), vehicle: saline with Tween-80): 103 % of control

NC1=NN(S(=O)(=O)c2ccc(Cl)cc2)CC1
T/C (dose: 50.0 mg/kg/injection, schedule: Q01DX005 (ip), vehicle: Klucel (hydroxypropylcellulose) (HPC)): 96 % of control
T/C (dose: 100.0 mg/kg/injection, schedule: Q01DX005 (ip), vehicle: Klucel (hydroxypropylcellulose) (HPC)): 88 % of control
T/C (dose: 200.0 mg/kg/injection, schedule: Q01DX005 (ip), vehicle: Klucel (hydroxypropylcellulose) (HPC)): 90 % of control

COC(=O)N1CC2[C@H](O)[C@H](O)C1ON2c1ccccc1 (stereo not given in full)
T/C [3]: 101 % of control
T/C [4]: 94 % of control
T/C [5]: 93 % of control

FC(F)(F)c1ccccc1Nc1nnc(-c2ccc(Cl)cc2Cl)o1
T/C [14]: 100 % of control
T/C [15]: 96 % of control
T/C [16]: 87 % of control

Cc1cc(Nc2nnc(-c3cccnc3Oc3ccccc3)s2)ccc1Br
T/C (dose: 12.5 mg/kg/injection, schedule: Q01DX009 (ip), vehicle: saline with Tween-80): 88 % of control
T/C (dose: 25.0 mg/kg/injection, schedule: Q01DX009 (ip), vehicle: saline with Tween-80): 92 % of control
T/C [11]: 105 % of control and 91 % of control
T/C [12]: 94 % of control
T/C [13]: 103 % of control

S=C(Nc1ccc(Cl)c(Cl)c1)SC1CCCCC1
T/C (dose: 25.0 mg/kg/injection, schedule: Q01DX009 (ip), vehicle: saline): 107 % of control
T/C [6]: 91 % of control
T/C (dose: 50.0 mg/kg/injection, schedule: Q01DX009 (ip), vehicle: suspension in saline): 105 % of control
T/C [7]: 100 % of control
T/C (dose: 100.0 mg/kg/injection, schedule: Q01DX009 (ip), vehicle: suspension in saline): 115 % of control
T/C [8]: 123 % of control
T/C (dose: 200.0 mg/kg/injection, schedule: Q01DX009 (ip), vehicle: suspension in saline): 120 % of control

Cc1ccc(-c2c([N+](=O)[O-])c3ccccn3c2[N+](=O)[O-])cc1
T/C [14]: 92 % of control
T/C [15]: 90 % of control
T/C [16]: 99 % of control

COC(=O)C(O)(C(=O)OC)C1=C(N)C(=O)c2ccccc2C1=O
T/C (dose: 50.0 mg/kg/injection, schedule: Q01DX005 (ip), vehicle: saline): 111 % of control
T/C (dose: 100.0 mg/kg/injection, schedule: Q01DX005 (ip), vehicle: saline): 123 % of control

C/C(=N\NC(=S)N1CC(C)OC(C)C1)c1cnccn1 (stereo not given)
T/C (dose: 12.5 mg/kg/injection, schedule: Q01DX005 (ip), vehicle: saline with Tween-80): 107 % of control
T/C [17]: 100 % of control
T/C [9]: 101 % of control and 97 % of control

O=C(O)C(Oc1nc(=S)[nH]c(=S)[nH]1)(c1ccc(Cl)cc1)c1ccc(Cl)cc1
T/C [14]: 103 % of control
T/C [15]: 101 % of control
T/C [16]: 103 % of control

COc1cccc2c1C(=O)c1c(O)c3c(c(O)c1C2=O)C[C@@](O)(C(C)=O)CC3OC1CC(NC2CC(=O)N(c3ccccc3)C2=O)C(O)C(C)O1 (stereo not given in full)
T/C (dose: 6.25 mg/kg/injection, schedule: Q04DX003 (ip), vehicle: water): 108 % of control
T/C (dose: 12.5 mg/kg/injection, schedule: Q04DX003 (ip), vehicle: water): 103 % of control
T/C (dose: 25.0 mg/kg/injection, schedule: Q04DX003 (ip), vehicle: water): 103 % of control
T/C (dose: 50.0 mg/kg/injection, schedule: Q04DX003 (ip), vehicle: water): 108 % of control

Cn1c(=O)n(CCn2c(=O)n(C)c3ccccc32)c2ccccc21
T/C (dose: 100.0 mg/kg/injection, schedule: Q01DX001 (ip), vehicle: Klucel (hydroxypropylcellulose) (HPC)): 91 % of control
T/C (dose: 200.0 mg/kg/injection, schedule: Q01DX001 (ip), vehicle: Klucel (hydroxypropylcellulose) (HPC)): 92 % of control
T/C (dose: 400.0 mg/kg/injection, schedule: Q01DX001 (ip), vehicle: Klucel (hydroxypropylcellulose) (HPC)): 91 % of control

COC(=O)C1=COC(OC2OC(CO)C(O)C(O)C2O)C2C(C)C(O)C(OC(=O)/C=C/c3ccc(OC)cc3)C12 (stereo not given)
T/C (dose: 9.38 mg/kg/injection, schedule: Q01DX005 (ip), vehicle: Klucel (hydroxypropylcellulose) (HPC)): 96 % of control
T/C (dose: 37.5 mg/kg/injection, schedule: Q01DX005 (ip), vehicle: Klucel (hydroxypropylcellulose) (HPC)): 88 % of control
T/C [3]: 93 % of control
T/C (dose: 75.0 mg/kg/injection, schedule: Q01DX005 (ip), vehicle: Klucel (hydroxypropylcellulose) (HPC)): 88 % of control
T/C [4]: 93 % of control
T/C [5]: 86 % of control

CCN(CC)CCC(=O)c1cccc2ccccc12
T/C [17]: 100 % of control
T/C [9]: 106 % of control
T/C [10]: 102 % of control

C=CC[P+](C)(c1ccccc1)c1ccccc1
T/C (dose: 0.78 mg/kg/injection, schedule: Q01DX009 (ip), vehicle: saline): 94 % of control
T/C (dose: 1.56 mg/kg/injection, schedule: Q01DX009 (ip), vehicle: saline): 97 % of control
T/C (dose: 3.13 mg/kg/injection, schedule: Q01DX009 (ip), vehicle: saline): 106 % of control

CN1CCC2(CCNCC2)C1=O
T/C [6]: 86 % of control
T/C [7]: 100 % of control
T/C [8]: 95 % of control
